The text below walks through data of article PMC11705763, “Tumor-associated antigen prediction using a single-sample gene expression state inference algorithm” (Cell Reports Methods, 2024).

Assay [1] has as its system CD8+ T cell cultures / PBMCs from healthy donors. Kind of assay: IFN-gamma ELISpot assay.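 For Donor2 value: Spot-forming units per 100000 cells.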 The format is cell-based, human. More on the design: Donor1_value / Donor3_value / Donor4_value: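 Spot-forming units per 100000 cells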. Conditions: IFN-gamma ELISpot result; for Donor1_value: healthy donor 1; for Donor2_value: healthy donor 2; for Donor3_value: healthy donor 3; for Donor4_value: healthy donor 4. The source says: We experimentally assessed the binding affinity of the 38 peptides through a competitive peptide binding assay (STAR Methods). […] Subsequently, we investigated the immunogenicity of these peptides using an interferon (IFN)-gamma ELISpot assay (STAR Methods). […] These peptides represent promising candidates for further investigation as potential immunotherapy targets. Peripheral blood mononuclear cells (PBMCs) from healthy donors were isolated at Zhongshan Hospital, Fudan University using Lymphoprep (07851, Stemcell) and cultured with ImmunoCult-XF T cell Expansion Medium (10981, Stemcell) supplemented with human recombinant IL-2 (78036, Stemcell). ImmunoCult Human CD3/CD28 T cell Activator (10971, Stemcell) was added to the cell suspension, which was then incubated for 3 days. Subsequent expansion of the cell suspension was carried out every two days as per manufacturer's instructions. The entire process was approved by the Institutional Review Board of Zhongshan Hospital, Fudan University (B2024-412). ELISPOT plates (2110003, […]) were pretreated with PBS before dispensing cell suspensions (nearly 1×10^5 cells) with synthesized peptide (10 μg/mL) into each well. After incubation at 37°C in a CO2 incubator for 20 h, plates were washed and incubated with anti-human IFN-γ followed by Streptavidin-HRP. Staining of Streptavidin-HRP was performed using AEC solution, and the reaction was stopped by rinsing with cold tap water. ELISPOT plates were scanned and counted using an ImmunoSpot plate reader and associated software from Cellular Technologies, Ltd.

Assay [2] addresses HLA-A02:01 (Homo sapiens, UniProt P04439, D140Y/D185E/D98H/E176V/E277Q/G131W/G231S/I119V/I121R/I166T/I218V/L300P/L318F/N151K/N90K/P208A/P217A/Q86G/Q94H/R138H/R169H/T345S). Kind of assay: Peptide-MHC tetramer exchange assay (competitive peptide binding, QuickSwitch Quant HLA-A02:01 tetramer). Conditions: percentage of replacement of the exchangeable peptide by the test peptide.

As for LLQISNWFI, in assay [1], the Donor1_value is 30, the Donor2_value is on record as 0, the Donor3_value came out at 30 and the Donor4_value is recorded as 0. Besides, the Q1_Replacement_Percentage in assay [2] was found to be 32.7%.

As for RLELVFGL, in assay [1], the Donor1_value was 0, the Donor2_value was 0, the Donor3_value is listed as 8 and the Donor4_value turned out to be 0. This sequence also came in with a Q1_Replacement_Percentage in assay [2] of 23.4%.

In assay [1], LLFGLALIEV had a Donor1_value of 28, a Donor2_value of 42, a Donor3_value of 7 and a Donor4_value of 0.

In assay [1], GLLMPLLGVI registered a Donor1_value of 631, a Donor2_value of 10, a Donor3_value of 3 and a Donor4_value of 0. In assay [2], this sequence showed a Q1_Replacement_Percentage of 91.4%.

YMLWFLLRHV: in assay [1], the Donor1_value is on record as 0, the Donor2_value stood at 0, the Donor3_value amounted to 29 and the Donor4_value is given as 0. In assay [2], this sequence showed a Q1_Replacement_Percentage of 32.4%.

On to GLLMPLLGV, for which, in assay [1], the Donor1_value is recorded as 521, the Donor2_value stood at 32, the Donor3_value came to 1 and the Donor4_value was 11. In addition, the Q1_Replacement_Percentage in assay [2] is reported as 91.1%.

In assay [1], YLHEQVKTI registered a Donor1_value of 0, a Donor2_value of 59, a Donor3_value of 24 and a Donor4_value of 9. For the same sequence, the Q1_Replacement_Percentage in assay [2] is 83.5%.

In assay [1], GLAEYLFDKLTL had a Donor1_value of 584, a Donor2_value of 0, a Donor3_value of 9 and a Donor4_value of 0. Also, in assay [2], the Q1_Replacement_Percentage came out at 89.8%.

In assay [1], LVLGTLEEV returned a Donor1_value of 666, a Donor2_value of 17, a Donor3_value of 15 and a Donor4_value of 11. Besides, in assay [2], the Q1_Replacement_Percentage turned out to be 85.1%.

In assay [1], KVLEFLAKL gave a Donor1_value of 545, a Donor2_value of 58, a Donor3_value of 12 and a Donor4_value of 0. In assay [2], the Q1_Replacement_Percentage is on record as 88.2%.

In the case of FLLLVDAAVQ, in assay [1], the Donor1_value came to 0, the Donor2_value was determined as 31, the Donor3_value is 16 and the Donor4_value amounted to 0. In addition, in assay [2], the Q1_Replacement_Percentage is recorded as 29.3%.

In assay [1], FLTSGEDAV yielded a Donor1_value of 494, a Donor2_value of 21, a Donor3_value of 0 and a Donor4_value of 0. Also, the Q1_Replacement_Percentage in assay [2] was 98.3%.

Regarding FLNEACLFEI, in assay [1], the Donor1_value turned out to be 606, the Donor2_value came to 0, the Donor3_value came to 7 and the Donor4_value is reported as 10. The same sequence yielded a Q1_Replacement_Percentage in assay [2] of 92%.

In the case of RKLLMPLLGV, in assay [1], the Donor1_value turned out to be 0, the Donor2_value was 0, the Donor3_value was 16 and the Donor4_value worked out at 0. This sequence displayed a Q1_Replacement_Percentage in assay [2] of 22.9%.

In assay [1], FLLLVDAAV returned a Donor1_value of 571, a Donor2_value of 34, a Donor3_value of 0 and a Donor4_value of 12. In assay [2], this sequence gave a Q1_Replacement_Percentage of 83.5%.

KVADLVGFLL: in assay [1], the Donor1_value stood at 570, the Donor2_value worked out at 0, the Donor3_value turned out to be 2 and the Donor4_value was determined as 0. In assay [2], this sequence had a Q1_Replacement_Percentage of 84.3%.

KMKVLEFLAKV: in assay [1], the Donor1_value is 0, the Donor2_value was found to be 2, the Donor3_value was determined as 18 and the Donor4_value is 0. The same sequence gave a Q1_Replacement_Percentage in assay [2] of 42.8%.

For the sequence LLMPLLGVI, in assay [1], the Donor1_value is given as 627, the Donor2_value came out at 0, the Donor3_value is given as 11 and the Donor4_value came to 48. Also, in assay [2], the Q1_Replacement_Percentage was 96.3%.

In assay [1], LLASYNDDDIYL had a Donor1_value of 426, a Donor2_value of 0, a Donor3_value of 3 and a Donor4_value of 8. In assay [2], the Q1_Replacement_Percentage turned out to be 98.2%.

In assay [1], ILFGISLREV yielded a Donor1_value of 0, a Donor2_value of 24, a Donor3_value of 20 and a Donor4_value of 8. This sequence also displayed a Q1_Replacement_Percentage in assay [2] of 96.2%.

In assay [1], GLLMPLLGVIFL gave a Donor1_value of 4, a Donor2_value of 33, a Donor3_value of 8 and a Donor4_value of 0. The sequence also had a Q1_Replacement_Percentage in assay [2] of 78.9%.

In assay [1], SLLDLYQLA had a Donor1_value of 0, a Donor2_value of 1, a Donor3_value of 0 and a Donor4_value of 0. In assay [2], this sequence gave a Q1_Replacement_Percentage of 91.5%.

In assay [1], FLAKLNNTV came in with a Donor1_value of 2, a Donor2_value of 56, a Donor3_value of 18 and a Donor4_value of 0. The same sequence registered a Q1_Replacement_Percentage in assay [2] of 88.1%.

In assay [1], VLLPASLFI came in with a Donor1_value of 634, a Donor2_value of 26, a Donor3_value of 0 and a Donor4_value of 0. The sequence also had a Q1_Replacement_Percentage in assay [2] of 94.8%.

In the case of KLLMPLLGV, in assay [1], the Donor1_value was determined as 384, the Donor2_value is 0, the Donor3_value is listed as 0 and the Donor4_value came out at 13. In assay [2], this sequence showed a Q1_Replacement_Percentage of 97.9%.

In assay [1], VIWDVLSGI gave a Donor1_value of 678, a Donor2_value of 0, a Donor3_value of 0 and a Donor4_value of 1. Besides, the Q1_Replacement_Percentage in assay [2] is 95.5%.

Regarding YVKVLEYVIKV, in assay [1], the Donor1_value is given as 0, the Donor2_value stood at 56, the Donor3_value amounted to 17 and the Donor4_value worked out at 0. The Q1_Replacement_Percentage in assay [2] is reported as 14.7%.

In assay [1], YTLDEKVAEL yielded a Donor1_value of 640, a Donor2_value of 29, a Donor3_value of 2 and a Donor4_value of 0. The sequence also came in with a Q1_Replacement_Percentage in assay [2] of 91.1%.

Take FLYEVFAQL: in assay [1], the Donor1_value is listed as 654, the Donor2_value was determined as 7, the Donor3_value came out at 4 and the Donor4_value was determined as 0. Further, in assay [2], the Q1_Replacement_Percentage is 92.7%.

In assay [1], FLWGPRAHSEV registered a Donor1_value of 558, a Donor2_value of 0, a Donor3_value of 10 and a Donor4_value of 18. The Q1_Replacement_Percentage in assay [2] was 90.4%.

In assay [1], KVLEYVIKV came in with a Donor1_value of 0, a Donor2_value of 23, a Donor3_value of 19 and a Donor4_value of 0. The same sequence showed a Q1_Replacement_Percentage in assay [2] of 80.8%.

Turning to FLRFANYCRI, in assay [1], the Donor1_value is on record as 0, the Donor2_value came to 8, the Donor3_value was found to be 8 and the Donor4_value was found to be 0. The Q1_Replacement_Percentage in assay [2] is 30%.

In assay [1], YIYDILLPV gave a Donor1_value of 17, a Donor2_value of 54, a Donor3_value of 19 and a Donor4_value of 0. In assay [2], this sequence had a Q1_Replacement_Percentage of 88.9%.

In assay [1], AMLKNTVPI yielded a Donor1_value of 0, a Donor2_value of 0, a Donor3_value of 18 and a Donor4_value of 0. For the same sequence, in assay [2], the Q1_Replacement_Percentage amounted to 89.9%.

In assay [1], QILQDGQFLV displayed a Donor1_value of 451, a Donor2_value of 37, a Donor3_value of 0 and a Donor4_value of 17. The Q1_Replacement_Percentage in assay [2] was 94%.

In assay [1], FLSTLTTFI had a Donor1_value of 0, a Donor2_value of 41, a Donor3_value of 15 and a Donor4_value of 0. In assay [2], this sequence came in with a Q1_Replacement_Percentage of 89.1%.

Regarding LQILQDGQFLV, in assay [1], the Donor1_value is listed as 0, the Donor2_value is on record as 0, the Donor3_value was determined as 32 and the Donor4_value was 0. For the same sequence, the Q1_Replacement_Percentage in assay [2] was found to be 81.9%.
